[1] abbreviates: mouse, in vivo, ip, 25 mg/kg, pH 2.3.
The mark [2] stands for this setting: mouse, in vivo, po, 50 mg/kg, 7 h, pH 2.3.
The mark [3] stands for this setting: mouse, in vivo, po, 50 mg/kg, pH 2.3.
Setting [4] is: mouse, in vivo, po, 25 mg/kg, pH 2.3.
Where [5] appears, read: mouse, in vivo, po, 25 mg/kg, 7 h, pH 2.3.
[6] abbreviates: mouse, in vivo, ip, 25 mg/kg, 7 h, pH 2.3.
[7] abbreviates: PO, 25 mg/kg, vehicle PEG400:H2O pH 2.3 30:70.

Like-named read-outs stand apart in the source and are kept apart here. A value given as a limit tells only on which side of the number the result lay.

For `Cc1cc(C(=O)Nc2cccc(C(=O)c3ccc4c(/C=C/c5ccccn5)n[nH]c4c3)c2)n[nH]1` [41 (g)], the “Cmin (7 hr conc.)” value (mouse, in vivo, ip, 25 mg/kg, 420 min, pH 2.3) was determined as 0 ng/mL and the “Cmin (7 hr conc.)” value under setting [2] is 1 ng/mL. The AUCleast is, setting by setting: under setting [1], 1925 ng·h/mL; under setting [3], 508 ng·h/mL. In addition, the T1/2 was found to be 0.3 h under setting [1] and 0.7 h under setting [3].
In the case of `CCONC(=O)c1ccccc1Sc1ccc2c(/C=C/c3ccccn3)n[nH]c2c1` [35 (dd)], the AUCleast was above 23046 ng·h/mL under setting [1]; 1360 ng·h/mL (mouse, in vivo, po, 25 mg/kg); above 6521 ng·h/mL under setting [4]. The T1/2 reads like this: under setting [1], 4.1 h; (mouse, in vivo, po, 25 mg/kg) 2.0 h; under setting [4], 1.4 h.
For the molecule `Cc1cnccc1C(=O)Nc1cccc(C(=O)c2ccc3c(/C=C/c4ccccn4)n[nH]c3c2)c1` [41 (j)], under setting [4], the AUCleast was found to be 1476 ng·h/mL and the T1/2 is 1.3 h.
Under setting [1], `O=C(Nc1cccc(C(=O)c2ccc3c(/C=N/n4cccc4)n[nH]c3c2)c1)c1ccccc1` [45 (b)] had an AUCleast of 11361 ng·h/mL and a T1/2 of 2.0 h. In addition, under setting [3], the AUCleast is 1636 ng·h/mL and the T1/2 stood at 3.0 h.
`Cc1cc(C(=O)Nc2cccc(C(=O)c3ccc4c(/C=C/c5ccccn5)n[nH]c4c3)c2)n(C)n1.Cl` [59 (b)] came in with an AUCleast (mouse, in vivo, po, 50 mg/kg) of 276467 ng·h/mL.
`C=CCn1nc(C)cc1C(=O)Nc1cc(C(=O)c2ccc3c(/C=C/c4ccccn4)n[nH]c3c2)ccc1C` [41 (ff)]: under setting [4], the AUCleast came out at 9176 ng·h/mL and the T1/2 turned out to be 2.0 h.
As for `O=C(NCc1ccncc1)c1ccccc1Sc1ccc2c(/C=C/c3ccccn3)n[nH]c2c1` [35 (p)], the “Cmin (7 hr conc.)” value under setting [5] stood at 5 ng/mL. Also, under setting [4], the AUCleast amounted to 1435 ng·h/mL and the T1/2 was found to be 1.3 h.
Under setting [1], `O=C(Nc1cccc(C(=O)c2ccc3c(-c4nc5cccnc5[nH]4)n[nH]c3c2)c1)c1ccccc1` [42 (d)] returned an AUCleast of 1774 ng·h/mL and a T1/2 of 1.4 h. In addition, the AUCleast under setting [3] was found to be 46 ng·h/mL.
As for `CCn1nc(C)cc1C(=O)Nc1cc(Nc2ccc3c(/C=C/c4ccccn4)n[nH]c3c2)c(F)cc1C.Cl` [59 (c)], the AUCleast (mouse, in vivo, po, 25 mg/kg) was 327135 ng·h/mL.
For `O=C(NC1CC1)c1ccccc1Sc1ccc2c(/C=C/c3ccccn3)n[nH]c2c1` [33 (e)], under setting [1], the AUCleast is 14323 ng·h/mL and the T1/2 is 1.0 h. Moreover, under setting [3], the AUCleast was found to be 13290 ng·h/mL and the T1/2 came to 0.7 h.
Under setting [4], `C#CCNC(=O)c1ccccc1Nc1ccc2c(/C=C/c3ccccn3)n[nH]c2c1` [39 (b)] displayed an AUCleast above 30972 ng·h/mL and a T1/2 of 11.8 h.
Under “mouse, in vivo, po, 25 mg/kg”, `CCn1nc(C)cc1C(=O)Nc1cccc(Oc2ccc3c(/C=C/c4ccccn4)n[nH]c3c2)c1.Cl` [59 (e)] displayed an AUCleast of 12510 ng·h/mL and a T1/2 of 21 h.
Take `CNC(=O)c1ccccc1Nc1ccc2c(/C=C/c3ccccn3)n[nH]c2c1` [39 (a)]: under setting [4], the AUCleast was above 14848 ng·h/mL and the T1/2 came out at 1.4 h.
On to `CCc1cc(C(=O)Nc2cccc(C(=O)c3ccc4c(/C=C/c5ccccn5)n[nH]c4c3)c2)n(C)n1` [41 (v)], for which, under setting [4], the AUCleast stood at 10949 ng·h/mL and the T1/2 amounted to 4.4 h.
In the case of `O=C(NCC1CC1)c1ccccc1Sc1ccc2c(/C=C/c3ccccn3)n[nH]c2c1` [35 (v)], under setting [1], the AUCleast is 4865 ng·h/mL and the T1/2 is 0.9 h. Under setting [3], this molecule registered an AUCleast above 2946 ng·h/mL and a T1/2 of 1.0 h.
Regarding `Cc1cc(C(=O)Nc2cc(Nc3ccc4c(/C=C/c5ccccn5)n[nH]c4c3)ccc2C)n(C)n1` [49 (b)], under setting [4], the AUCleast was determined as 33750 ng·h/mL.
Under setting [1], `O=C(NC1CCC1)c1ccccc1Sc1ccc2c(/C=C/c3ccccn3)n[nH]c2c1` [35 (c)] had an AUCleast of 9408 ng·h/mL and a T1/2 of 3.2 h. Under setting [3], the AUCleast worked out at 4744 ng·h/mL and the T1/2 was 4.9 h.
For `O=C(Nc1cccc(Cl)c1)c1ccccc1Sc1ccc2c(/C=C/c3ccccn3)n[nH]c2c1` [33 (d)], under setting [1], the AUCleast came to 5080 ng·h/mL and the T1/2 is 1.6 h. In addition, under setting [2], the “Cmin (7 hr conc.)” value stood at 8 ng/mL. Under setting [3], this molecule gave an AUCleast of 4744 ng·h/mL and a T1/2 of 0.9 h.
Consider `CCOCCNC(=O)c1ccccc1Sc1ccc2c(/C=C/c3ccccn3)n[nH]c2c1` [35 (z)], for which the AUCleast was determined as 837 ng·h/mL under setting [1] and 1001 ng·h/mL under setting [3]. The T1/2 was 1.8 h under setting [1] and 1.6 h under setting [3].
Under setting [1], `O=C(Nc1cccc(C(=O)c2ccc3c(/C=C/c4ccccn4)n[nH]c3c2)c1)c1ccncc1` [41 (b)] yielded an AUCleast above 5868 ng·h/mL and a T1/2 of 4.7 h. Moreover, under setting [2], the “Cmin (7 hr conc.)” value was 6 ng/mL. For the same molecule, under setting [3], the AUCleast came out at 759 ng·h/mL and the T1/2 was determined as 1.1 h.
Molecule `CCn1nc(C)cc1C(=O)Nc1cc(Nc2ccc3c(/C=C/c4ccccn4)n[nH]c3c2)c(F)cc1C` [48 (a)] gave an AUCleast under setting [1] of 27000 ng·h/mL and an AUCleast under setting [4] of 26636 ng·h/mL.
Under setting [1], `O=C(Nc1cccc(C(=O)c2ccc3c(/C=C/c4ccccn4)n[nH]c3c2)c1)c1ccccc1` [42 (a)] showed an AUCleast of 19899 ng·h/mL and a T1/2 of 5.0 h. Under setting [3], this molecule yielded an AUCleast of 8384 ng·h/mL and a T1/2 of 2.0 h.
`Cc1ccc(CNC(=O)c2ccccc2Sc2ccc3c(/C=C/c4ccccn4)n[nH]c3c2)o1` [35 (h)]: the “Cmin (7 hr conc.)” value is, setting by setting: under setting [6], 1 ng/mL; under setting [2], 2 ng/mL. Besides, the AUCleast reads like this: under setting [1], 59 ng·h/mL; under setting [3], 26 ng·h/mL. This molecule also had a T1/2 under setting [1] of 1.5 h.
Under setting [1], `CC(C)ONC(=O)c1ccccc1Sc1ccc2c(/C=C/c3ccccn3)n[nH]c2c1` [35 (k)] showed an AUCleast of 2640 ng·h/mL and a T1/2 of 1.4 h. Moreover, under setting [3], the AUCleast stood at 5529 ng·h/mL and the T1/2 was determined as 1.4 h.
As for `COc1cccc(CNC(=O)c2ccccc2Sc2ccc3c(/C=C/c4ccccn4)n[nH]c3c2)c1` [35 (aa)], under setting [4], the AUCleast stood at 4036 ng·h/mL and the T1/2 was 2.1 h.
`Cc1cc(C(=O)Nc2cc(Nc3ccc4c(/C=C/c5ccccn5)n[nH]c4c3)ccc2F)n(C)n1.Cl` [59 (d)]: the AUCleast is above 24696 ng·h/mL (mouse, in vivo, po, 8 mg/kg); above 32297 ng·h/mL (mouse, in vivo, po, 40 mg/kg); above 123206 ng·h/mL (mouse, in vivo, po, 200 mg/kg).
In the case of `O=C(NCCc1cccs1)c1ccccc1Sc1ccc2c(/C=C/c3ccccn3)n[nH]c2c1` [35 (hh)], under setting [5], the “Cmin (7 hr conc.)” value amounted to 5 ng/mL. Under setting [4], this molecule gave an AUCleast of 292 ng·h/mL and a T1/2 of 1.7 h.
Consider `Cc1cc(C(=O)Nc2cccc(C(=O)c3ccc4c(/C=C/c5ccccn5)n[nH]c4c3)c2)on1` [41 (m)], for which the AUCleast came out at 1864 ng·h/mL under setting [1] and 9 ng·h/mL under setting [3]. Under setting [1], this molecule displayed a T1/2 of 2.3 h.
Regarding `CC(C)NC(=O)c1ccccc1Sc1ccc2c(/C=C/c3ccccn3)n[nH]c2c1` [35 (b)], under setting [1], the AUCleast stood at 2840 ng·h/mL and the T1/2 was 0.8 h. Under setting [3], this molecule showed an AUCleast of 4048 ng·h/mL and a T1/2 of 0.8 h.
With `CCNC(=O)c1ccccc1Sc1ccc2c(/C=C/c3ccccn3)n[nH]c2c1` [35 (x)], under setting [1], the AUCleast worked out at 951 ng·h/mL and the T1/2 was determined as 3.2 h. For the same molecule, under setting [3], the AUCleast amounted to 3516 ng·h/mL and the T1/2 stood at 0.9 h.
Under setting [4], `COc1ccc(CNC(=O)c2ccccc2Sc2ccc3c(/C=C/c4ccccn4)n[nH]c3c2)cc1` [35 (g)] yielded an AUCleast of 231 ng·h/mL and a T1/2 of 16.1 h.
Under setting [1], `O=C(NCc1cccc(F)c1)c1ccccc1Sc1ccc2c(/C=C/c3ccccn3)n[nH]c2c1` [35 (ff)] returned an AUCleast above 6301 ng·h/mL. In addition, under setting [4], the AUCleast entry is “Blq” and the “Cmin (7 hr conc.)” value is listed as “blq”.
For the molecule `CC(C)ONC(=O)c1cccc(F)c1Sc1ccc2c(/C=C/c3ccccn3)n[nH]c2c1` [37 (c)], the “Cmin (7 hr conc.)” value under setting [5] worked out at 9 ng/mL. Under setting [4], this molecule gave an AUCleast of 2419 ng·h/mL and a T1/2 of 1.2 h.
Under setting [4], `CONC(=O)c1ccccc1Sc1ccc2c(/C=C/c3ccccn3)n[nH]c2c1` [35 (r)] registered an AUCleast of 4261 ng·h/mL and a T1/2 of 1.3 h.
As to `O=C(NCc1ccccc1F)c1ccccc1Sc1ccc2c(/C=C/c3ccccn3)n[nH]c2c1` [35 (f)], under setting [1], the AUCleast was determined as 397 ng·h/mL and the T1/2 is 3.8 h. Also, under setting [3], the AUCleast is 358 ng·h/mL and the T1/2 came to 3.6 h.
In the case of `CC(C)COC(=O)Nc1cccc(C(=O)c2ccc3c(/C=C/c4ccccn4)n[nH]c3c2)c1` [41 (y)], under setting [7], the AUCleast entry is given as “Blq”, the Cmax entry is on record as “Blq” and the “Cmin (7 hr conc.)” value is “blq”.
Under setting [1], `O=C(Nc1cccc(C(=O)c2ccc3c(-c4nc5ccccc5[nH]4)n[nH]c3c2)c1)c1ccccc1` [42 (b)] came in with an AUCleast of 3207 ng·h/mL and a T1/2 of 3.0 h. Under setting [3], this molecule gave an AUCleast of 4747 ng·h/mL and a T1/2 of 3.0 h.
As to `O=C(NCC(F)(F)F)c1ccccc1Sc1ccc2c(/C=C/c3ccccn3)n[nH]c2c1` [33 (f)], the “Cmin (7 hr conc.)” value reads like this: under setting [6], 6 ng/mL; under setting [2], 3 ng/mL. Moreover, the AUCleast runs as follows: under setting [1], 1887 ng·h/mL; under setting [3], 1436 ng·h/mL. The T1/2 worked out at 2.4 h under setting [1] and 0.7 h under setting [3].

Values taken from patent publication EP1614683B1, “Indazole compounds and pharmaceutical compositions for inhibiting protein kinases, and methods for their use” (priority 1999, dated 2001).
